“Also recorded” adds a separate entry of the source.
Experiments:
[1] = test system: acetic acid-induced colitis; assay: acetic acid-induced colitis in the rat, test drug i.r. 30 minutes before acetic acid; assay type: in vivo; details: for damage in the colons: 650 μmol/kg i.r. 30 minutes before acetic acid, colons assessed 24 hours later
Description: A typical model of IBD in acetic acid-induced colitis in the rat has been described by Krawisz et al in Amer. J. Proc. Gastro. Col. Rec. Surg., Vol. 31, pages 11-18 (1980); and by Sharon et al in Gastroenterology, Vol. 88, pages 55-63 (1985) and Vol. 86, pages 453-460 (1984). Acetic acid-induced colitis is characterized by the movement of inflammatory cells into the colon, with the number of such cells in the mucosa being measured by the activity of myeloperoxidase, a marker enzyme for these cells. Positive desirable activity is indicated by a reduction in the high levels of myeloperoxidase caused by acetic acid. Typically, Sprague-Dawley rats from Charles River Laboratories, Portage, Mich. (either sex, weight approximately 250 g) are dosed with test compounds and controls. Thereafter, the rats are given an intracolonic enema of acetic acid which produces a severe inflammatory response in the colon of a healthy rat characterized by rectal bleeding, diarrhea, epithelial erosions and destructions of crypts and gland cells. Twenty-four hours later, the test and control animals are sacrificed and the distal ten centimeters of the colons are removed and opened longitudinally. The tissue lesions contained within the removed, opened section of the colons are scored. After the systematic evaluation of the impact of various fasting times, use of vehicles, the time interval between pre-treatment and administration of the acetic acid and altering the concentration of acetic acid, the final protocol for the experiments is to fast the rats for 30 hours in hanging wire cages, anesthetize the animals with sodium pentobarbital, administer the test drug 1 cc intrarectally (i.r.) either as a suspension or a solution in water, and to give the acetic acid (7.5% in water) 1 cc i.r. 30 minutes later. The rats are sacrificed 24 hours later and the colons are removed and assessed for damage.

[2] = test system: acetic acid-induced colitis; assay: reversal studies, compound given 30 minutes after 2.5% acetic acid; assay type: in vivo, rat
Description: (§1) The lesions were apparently resolving and with some lamina proprial fibrosis and considerable hyperplasia of submucosal lymphoid tissue. […] This is a highly desirable property, as patients suffering from IBD are already anemic due to disease-related blood loss.

mice = details: mouse, in vivo
Description: DFO and DFT given i.r. at a dose of 650 μmol/kg were ineffective. […] See, for example, FIGS. 7 and 8.

[3] = iron binding in a test tube; assay type: physicochemical
Description: as §1

iron = iron chelator activity when given to rats; assay type: in vivo
Description: as §1

Structure (SMILES) | dose response study, prevention of severe lesions ([1]; 162.5 μmol/kg (41.5 mg/kg) at 1 cc i.r.) | damage in the colons [1] | head-to-head comparison with 5-ASA or its commercially available formulation (Rowasa) ([1]; compound 650 μmol/kg vs. 5-ASA/Rowasa 1742 μmol/kg) | lesions compared with the control group [2] | acute toxicity (mice) | iron binding [3] | activity as an iron chelator (iron; orally) | activity as an iron chelator (iron; subcutaneously (s.c.))
Cc1ccc(O)c(C2=NC(C(=O)O)CC2)c1 (stereo not shown) [2H-pyrrolecarboxylic acid, 3,4-dihydro-5-(2-hydroxy-5-methylphenyl)-2H-pyrrole-2-carboxylic acid] | severe lesions being prevented in a majority of rats | very little damage; also recorded: considerably less damage | far superior | less severe and less active | virtually non-toxic | binds iron remarkably well | inactive | inactive
CC(=O)N(O)CCCCCNC(=O)CCC(=O)N(O)CCCCCNC(=O)CCC(=O)N(O)CCCCCN [DFO, reference compound] |  | ineffective |  |  |  |  |  | 
C[C@]1(C(=O)O)CSC(c2ncccc2O)=N1 [DFT, reference compound] |  | ineffective |  |  |  |  |  | 

From patent US6689788B1, “Method and composition for treatment of inflammatory bowel disease” (University of Florida, priority 2000, dated 2004)
